Assay results taken from patent EP0259183A2, “Process for controlling the accuracy and precision of sensitivity assays” (LIFETRAC, priority 1986, dated 1988).

Test system: primary human tumor cells
Experiment: Drug sensitivity assay of primary tumor cell cultures on cell-adhesive matrix, growth quantitated by optical density of crystal violet stained wells, IC90 from survival curves
Assay type: cell-based
Conditions: median of IC90 values over a large group of individuals' tumor cells (Figure 5); 5 days drug exposure, then 7 days further culture; 2,000 cells per well
Protocol: Biopsies of tumors were obtained from cancer patients during routine diagnostic or therapeutic procedures. The biopsies were transported to the laboratory.
The solid tumor biopsies were minced with scapels to 1 mm pieces. Fluid specimens were anticoagulated with 10 Units/ml of Heparin and the cells recovered by contrifugation. The tissue from either the solid or fluid specimens were disaggregated by overnight incubation with constant stirring with the enzyme cocktail consisting of collagenase (0.075%) and DNase (0.005%) in culture medium supplemented with 10% fetal bovine serum. […]
The tumor cell count is performed using a hemocytometer and a microscope fitted with a phase gradient inaging system so that living cells can be visualized. The number of viable tumor cells are counted at 400X magnification according to the following criteria: 1. unstained by the trypan blue dye; 2. large size (>15 microns); 3. large nucleous to cytoplasmic ratio; 4. prominant nucleoli; and 5. nil to moderate granularity. The number of cells in 1/9th the marked area of the hemocytometer meeting the above criteria are counted.
The cell concentration is calculated and an aliquot containing the number of cells required for the assay (200,000 cells for a 9 drug assay using alphaMEM culture medium) is withdrawn. […]

With `N.N.[Cl][Pt][Cl]` [cisplatin] the “IC90 (concentration of drug that killed or inhibited 90% of the growing population of cells), median of the distribution of responses” value was 0.3 µg/mL.
